Test system: NCI-H1341 complex spheroids, percent test/control
Assay: Anticancer human tumor NCI-H1341 cell line growth inhibition [AhR];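 also: spheroids exposed to agents for seven days before readout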
Details: for IC50: curve of first compound; for viability, T/C: stronger effect = lower value
Procedure, shortened: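 Spheroids combined tumor cells with HUVEC endothelial cells and human MSCs as stroma. AhR antagonists were paired with standard or investigational drugs, each dosed in half-log steps down from near clinical Cmax, or from 10 microM where Cmax was unknown.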

[1] = second compound 0.1 µM, first compound 0.0316 µM
[2] = second compound 0.1 µM, first compound 0.1 µM
[3] = second compound 0.1 µM, first compound 0.316 µM
[4] = second compound 0.1 µM, first compound 1 µM
[5] = second compound 0.1 µM, first compound 3.16 µM
[6] = second compound 0.1 µM, first compound 10 µM
[7] = second compound 0.316 µM, first compound 0.0316 µM
[8] = second compound 0.316 µM, first compound 0.1 µM
[9] = second compound 0.316 µM, first compound 0.316 µM
[10] = second compound 0.316 µM, first compound 1 µM
[11] = second compound 0.316 µM, first compound 3.16 µM
[12] = second compound 0.316 µM, first compound 10 µM
[13] = second compound 1 µM, first compound 0.0316 µM
[14] = second compound 1 µM, first compound 0.1 µM
[15] = second compound 1 µM, first compound 0.316 µM
[16] = second compound 1 µM, first compound 1 µM
[17] = second compound 1 µM, first compound 3.16 µM
[18] = second compound 1 µM, first compound 10 µM
[19] = second compound 3.16 µM, first compound 0.0316 µM
[20] = second compound 3.16 µM, first compound 0.1 µM
[21] = second compound 3.16 µM, first compound 0.316 µM
[22] = second compound 3.16 µM, first compound 1 µM
[23] = second compound 3.16 µM, first compound 3.16 µM
[24] = second compound 3.16 µM, first compound 10 µM
[25] = second compound 10 µM, first compound 0.0316 µM
[26] = second compound 10 µM, first compound 0.1 µM
[27] = second compound 10 µM, first compound 0.316 µM
[28] = second compound 10 µM, first compound 1 µM
[29] = second compound 10 µM, first compound 3.16 µM
[30] = second compound 10 µM, first compound 10 µM

Compound	IC50 (second compound 0.1 µM)	IC50 (second compound 0.316 µM)	IC50 (second compound 1 µM)	IC50 (second compound 3.16 µM)	IC50 (second compound 10 µM)	viability, T/C [1]	viability, T/C [2]	viability, T/C [3]	viability, T/C [4]	viability, T/C [7]	viability, T/C [8]	viability, T/C [9]	viability, T/C [10]	viability, T/C [13]	viability, T/C [14]	viability, T/C [15]	viability, T/C [16]	viability, T/C [19]	viability, T/C [20]	viability, T/C [21]	also measured
COc1cc(C2c3cc4c(cc3C(OC3OC5COC(C)OC5C(O)C3O)C3COC(=O)C23)OCO4)cc(OC)c1O (stereo not given) + Cc1cncc(-c2nc(NCCc3c[nH]c4ccccc34)c3ncn(C(C)C)c3n2)c1	416 nM	611 nM	283 nM	233 nM	< 31.6 nM	74.3%	89.4%	54.7%	36.6%	79.5%	76.3%	62.2%	40.9%	74.9%	72.9%	47.6%	36%	76.1%	61.4%	41.7%	viability, T/C [5]: 34.1%; viability, T/C [6]: 34%; viability, T/C [11]: 35.1%; viability, T/C [12]: 34.2%; viability, T/C [17]: 40.5%; viability, T/C [18]: 34.2%; viability, T/C [22]: 44%; viability, T/C [23]: 35.7%; viability, T/C [24]: 32.7%; viability, T/C [25]: 30.6%; viability, T/C [26]: 27.4%; viability, T/C [27]: 23.1%; viability, T/C [28]: 23.5%; viability, T/C [29]: 14%; viability, T/C [30]: 14.1%
COc1cccc2c1C(=O)c1c(O)c3c(c(O)c1C2=O)CC(O)(C(=O)CO)CC3OC1CC(N)C(O)C(C)O1 (stereo not given) + Cc1cncc(-c2nc(NCCc3c[nH]c4ccccc34)c3ncn(C(C)C)c3n2)c1	< 31.6 nM	< 31.6 nM	< 31.6 nM	< 31.6 nM	< 31.6 nM	51%	43%	33.4%	16%	43.4%	39.2%	34.8%	13%	39.5%	37.5%	28.9%	10.9%	38.9%	35%	27.1%	viability, T/C [5]: 0.94%; viability, T/C [6]: 5.91%; viability, T/C [11]: 0.92%; viability, T/C [12]: 4.49%; viability, T/C [17]: 1.66%; viability, T/C [18]: 4.68%; viability, T/C [22]: 5.93%; viability, T/C [23]: 2.35%; viability, T/C [24]: 6.56%; viability, T/C [25]: 16.8%; viability, T/C [26]: 16.6%; viability, T/C [27]: 14.3%; viability, T/C [28]: 2.4%; viability, T/C [29]: 6.71%; viability, T/C [30]: 5.96%
Nc1ncn(C2CC(O)C(CO)O2)c(=O)n1 (stereo not given) + Cc1cncc(-c2nc(NCCc3c[nH]c4ccccc34)c3ncn(C(C)C)c3n2)c1	206 nM	264 nM	80.4 nM	481 nM	< 3.16 nM	81.4%	54.7%	48.8%	28.1%	78.2%	55.6%	52.1%	27.9%	68%	45.3%	45.9%	33.3%	69.2%	70.2%	53.7%	viability, T/C (second compound 0.1 µM, first compound 0.00316 µM): 83%; viability, T/C (second compound 0.1 µM, first compound 0.01 µM): 89.2%; viability, T/C (second compound 0.316 µM, first compound 0.00316 µM): 75.5%; viability, T/C (second compound 0.316 µM, first compound 0.01 µM): 86.1%; viability, T/C (second compound 1 µM, first compound 0.00316 µM): 73%; viability, T/C (second compound 1 µM, first compound 0.01 µM): 82.7%; viability, T/C (second compound 3.16 µM, first compound 0.00316 µM): 71.4%; viability, T/C (second compound 3.16 µM, first compound 0.01 µM): 72%; viability, T/C [22]: 38%; viability, T/C (second compound 10 µM, first compound 0.00316 µM): 25.7%; viability, T/C (second compound 10 µM, first compound 0.01 µM): 26.9%; viability, T/C [25]: 21.3%; viability, T/C [26]: 19.5%; viability, T/C [27]: 20.1%; viability, T/C [28]: 18.9%

Reference: PubChem BioAssay AID1919014 (Molecular Pharmacology Branch, DTP, NCI, 2023)
